PMC4335872, “Pharmacokinetic-Pharmacodynamic Analysis of Spiroindolone Analogs and KAE609 in a Murine Malaria Model” (Antimicrobial Agents and Chemotherapy, 2015)

Experiments:
P. falciparum NF54 = assay: In vitro [3H]hypoxanthine incorporation assay, P. falciparum NF54; assay type: cell-based, Plasmodium falciparum; details: 16 h + 8 h incubation; read-out: IC50 (mean ± SD) for P. falciparum NF54 (n = 3)
Method: Human erythrocytes served as the host cells. In vitro antimalarial activity was measured using the [^3H]hypoxanthine incorporation assay ([36]) with strain NF54 of P. falciparum (obtained from Hoffmann-LaRoche Ltd.). The compounds were dissolved in dimethyl sulfoxide (DMSO) at a concentration of 10 mM, diluted in hypoxanthine-free culture medium, and titrated in duplicate over a 64-fold range in 96-well plates. […] The parasites were harvested onto glass fiber filters, and radioactivity was measured using a BetaPlate liquid scintillation counter (Wallac, Zurich, Switzerland). All assays were repeated at least three times. The results were recorded and expressed as a percentage of the untreated controls. […] In addition, for the PK-PD analysis of KAE609, an IC99 value was determined by transforming the data from a scintillation counter (Anscombe transformation) to account for Poissonian measurement error. […] Each of the three replicates was performed on a distinct 96-well plate. This has been accounted for in the fitting procedure by means of a Bayesian hierarchical model. The software used for parameter inference was Stan ([37]).

[1] = system: P. berghei GFP ANKA PbGFPCON; assay: In vitro (ex vivo) P. berghei maturation assay; assay type: cell-based, Plasmodium berghei; details: 16 h + 8 h incubation; read-out: IC50 (mean ± SD) for P. berghei GFP ANKA PbGFPCON (n = 3)
Method: For the in vitro (ex vivo) P. berghei maturation assays ([38]), heparinized blood from infected mice (P. berghei GFP ANKA malaria strain PbGFPCON, a donation from A. P. Waters and C. J. Janse, Leiden University, Leiden, the Netherlands) ([39]) was washed with 9 ml of hypoxanthine-free culture medium and diluted with hypoxanthine-free culture medium and red blood cells (RBCs) from uninfected mice to a hematocrit of 5% and a parasitemia of 0.3%. Serial compound dilutions were prepared in DMSO and distributed as described above. The infected erythrocytes (0.3% final parasitemia and 2.5% final hematocrit) were added into the wells. After the plates were incubated for 16 h, 0.25 μCi of [^3H]hypoxanthine was added per well, and the plates were incubated for an additional 8 h. The parasites were harvested, and the in vitro (ex vivo) P. berghei IC50, IC90, and IC99 values were determined as described above.

[2] = In vivo PK after single p.o. and i.v. dosing in CD-1 mice; design: species or system female CD-1 mice; details: CD-1 mice
Method: The Institutional Animal Care and Use Committee (IACUC) of the Novartis Institute for Tropical Diseases (NITD), registered with the Agri-Food and Veterinary authority (AVA), Government of Singapore, reviewed and approved all animal experimental protocols. […] The mice were allowed to acclimate before the initiation of the experiments. Feed and water were given ad libitum. […] The blood samples from the mice were collected at 0.02 (for i.v. only), 0.08, 0.25, 0.5, 1, 2, 4, 8, 16, and 24 h postdosing. The dose proportionality studies were conducted with KAE609. […] Additional samples were collected at 32 h and 48 h postdose for the 1- and 5-mg/kg dose groups and up to 72 h postdose for the 100-mg/kg dose group. Groups of three mice were used for each time point. Blood was centrifuged at 13,000 rpm for 7 min at 4°C, and plasma was harvested and stored at -20°C until analysis. […] After vortexing and centrifuging the mixture, the supernatant was removed and 5 μl of sample analyzed. Analyte quantitation was performed by high-performance liquid chromatography coupled with tandem mass spectrometry (LC-MS/MS). […] Instrument control and data acquisition were performed using the Applied Biosystems software Analyst 1.4.2. […] Multiple-reaction monitoring (MRM) was combined with optimized MS parameters to maximize detection specificity and sensitivity. The most intense MRM transitions [338.3/295.1 for (+)-1, 370.1/327.0 for (+)-2, 370.0/326.9 for (+)-3, 354.1/310.8 for (+)-4, 354.1/311.2 for (+)-5, 372.1/329.1 for (+)-6, 388.0/331.8 for (+)-7, 372.1/316.1 for (-)-6, and 388/332 for (-)-7] were used for quantitation. Most compounds were analyzed using electrospray ionization in the negative mode, except (+)-1, which was analyzed using positive mode. The recovery of the compounds from plasma was good and consistent across the concentration range studied. The lower limits of quantification for different compounds ranged from 1.3 to 70 ng/ml in plasma. A calibration curve was freshly prepared and analyzed with every set of study samples. Intraday variability was established with triplicate quality control samples at three concentration levels. The results were accepted if relative standard deviation was <15%. The mean values of the compound concentrations in plasma were obtained from three animals at each time point and plotted against time to generate concentration-time profiles. […] The oral bioavailability (F) was calculated as the ratio between the area under the concentration-time curve from 0 to infinity (AUC0-∞) following oral administration and the AUC0-∞ following intravenous administration corrected for dose (F = […].).

[3] = system: P. berghei GFP ANKA malaria strain PbGFPCON; assay: Dose-response efficacy in the P. berghei malaria mouse model; assay type: in vivo, female NMRI mice
From the text: All in vivo studies conducted at the Swiss Tropical and Public Health Institute (TPH) adhered to local and national regulations of laboratory animal welfare in Switzerland (permission no. 1731). For in vivo efficacy, female (specific-pathogen-free) […] (NMRI) mice were obtained from Janvier, Le Genest-Saint-Isle, France. Only mice without visible signs of disease were used for the study. Standard laboratory conditions were adopted for husbandry. In vivo antimalarial activity was assessed using groups of five female NMRI mice (20 to 22 g) intravenously infected on day zero with 2 × 10^7 erythrocytes parasitized with P. berghei GFP ANKA malaria strain PbGFPCON (a donation from A. P. Waters and C. J. Janse, Leiden University) ([39]). Untreated control mice typically died between day six and day seven postinfection. Experimental compounds were formulated in 10% ethanol, 30% PEG 400, and 60% of 10% vitamin E TPGS and were administered orally in a volume of 10 ml/kg. Dose-response efficacy studies were conducted for each spiroindolone analog. Doses of 2.5, 5, 10, 30, and 100 mg/kg were administered to groups of 5 mice each as a single dose at 24 h postinfection. Parasitemia, expressed as parasitized red blood cells (pRBCs) of >100 RBCs, was determined 72 h postinfection using standard flow cytometry techniques ([39]).
Data analysis was done using nonlinear mixed-effect modeling (NONMEM version VI 2.0), which analyzed the PD data from multiple dose groups obtained simultaneously from different experiments. Within NONMEM, first-order conditional estimation (FOCE) was the method used ([40]). The log-transformed dose and level of parasitemia were used for analysis. For each compound, a dose-response model was built, and the ED90 (effective dose lowering 90% of parasitemia) values were determined using equation 1 ([41]), where P is the parasitemia measured at any given dose, Pmax is the maximum level of parasitemia, Pmin is the minimum level of parasitemia, EZ50 is the dose required to produce 50% of the maximal effect, s is the Hill slope describing the steepness of the curve, and x is the dose (in mg/kg). 1 P=Pmin +{[Pmax−Pmin]/[1+10^(logEZ50−log x)×s]}

[4] = Parallel artificial membrane permeability assay (PAMPA); assay type: in vitro ADME; details: % fraction absorbed
From the text: (§1) page 5: Running title: PreclinicalPK -PD of antimalarials 73 to high through put form at using in- house standard assa y protocols that are described in the 74 literature. 75 (a)HT-Equilibrium solubilit y at pH 6.8( 1); (b)Parallel Artificial Membrane P ermeability Assa y 76 expressed in % fraction absorbed (FA) ( 2,3 ); (c)Apparent permeability from apical to […] 78 tested; (d)intrinsic clearance in mouse liver micro somes ex pressed as µ L/ min/mg protein, in 79 the presen ce of liver enzym es ( 6); (e)Mous e plasm a protein binding using rapid equilibrium […] 81 82 83 84 85 86 87 88 89 90 91 92 93 94 95 96 97 98 5

Caco-2 cells = assay: Caco-2 permeability; assay type: in vitro ADME; details: apical to basolateral
From the text: as §1

[5] = Intrinsic clearance in mouse liver microsomes; assay type: in vitro ADME; details: per mg protein
From the text: as §1

[6] = Mouse plasma protein binding, rapid equilibrium dialysis; assay type: in vitro ADME
From the text: as §1

[7] = sigmoid dose-response model, single oral doses 24 h postinfection, parasitemia 72 h postinfection

SMILES: C[C@H]1Cc2c([nH]c3ccccc23)[C@@]2(N1)C(=O)Nc1ccc(Cl)cc12 [(+)-1]
- IC50 (P. falciparum NF54): 13 ± 2.2 nM
- IC50 [1]: 242 ± 124 nM
- CL ([2]; i.v. 5 mg/kg): 49.7 mL/min/kg
- Vss ([2]; i.v. 5 mg/kg): 0.9 L/kg
- t1/2 (i.v.) ([2]; i.v. 5 mg/kg): 24 min
- F (oral bioavailability) ([2]; oral 25 mg/kg vs i.v. 5 mg/kg): 13%
- AUC0–24 ([2]; single oral dose 25 mg/kg): 1300 ng·h/mL
- Tmax ([2]; single oral dose 25 mg/kg): 15 min
- t1/2 (oral) ([2]; single oral dose 25 mg/kg): 42 min
- Cmax ([2]; single oral dose 25 mg/kg, plasma): 1200 ng/mL
- Hill slope ([3]; dose vs parasitemia model): −3.1
- Pmax (maximum parasitemia) [3, 7]: 33.11
- Pmin (minimum parasitemia) [3, 7]: 0.03
- ED90 (effective dose causing a 90% reduction in parasitemia) ([3]; single oral dose 24 h postinfection, parasitemia 72 h postinfection): 15.3 mg/kg
- PAMPA %FA [4]: 97%
- Caco-2 Papp (A-B) (Caco-2 cells): 7.19 10-6 cm/sec
- Hepatic CLint in mouse liver microsomes [5]: 770 µL/min/mg
- Mouse PPB [6]: 98.4%
